Measured values from patent publication US4199570A, “1-N-Hetero containing aminoglycoside derivatives” (Shionogi & Co., Ltd., priority 1977, dated 1980).
Values after ≈ are worked out from the molar mass of the structure shown.

What was measured:
Type in all cases: cell-based
Proteus vulgaris TB-615 [1] = test: MIC (Table 2); details: TB615, tobramycin resistant strain, read-out: Minimum Inhibitory Concentration (MIC)
[2] = test system: Pseudomonas aeruginosa TB-121; test: MIC (Table 2); details: TB121, tobramycin resistant strain, read-out: Minimum Inhibitory Concentration (MIC)
[3] = test system: Staphylococcus epidermidis TB-775; test: MIC (Table 2); details: TB775, tobramycin resistant strain, read-out: Minimum Inhibitory Concentration (MIC)
[4] = test system: Staphylococcus epidermidis TB-302; test: MIC (Table 2); details: TB302, tobramycin resistant strain, read-out: Minimum Inhibitory Concentration (MIC)
[5] = test system: Pseudomonas aeruginosa TB-151; test: MIC (Table 2); details: TB151, tobramycin resistant strain, read-out: Minimum Inhibitory Concentration (MIC)
[6] = test system: Pseudomonas aerginosa TB-121; test: MIC (Table 3); details: TB121, read-out: Minimum Inhibitory Concentration (MIC)
[7] = test system: Pseudomonas aeruginosa TB-151; test: MIC (Table 3); details: TB151, read-out: Minimum Inhibitory Concentration (MIC)
Proteus vulgaris TB-615 [8] = test: MIC (Table 3); details: TB615, read-out: Minimum Inhibitory Concentration (MIC)
[9] = test system: Staphylococcus epidermidis TB-775; test: MIC (Table 3); details: TB775, read-out: Minimum Inhibitory Concentration (MIC)

| SMILES | MIC (Proteus vulgaris TB-615 [1]) [µg/mL] | MIC [2] [µg/mL] | MIC [3] [µg/mL] | MIC [4] [µg/mL] | MIC [5] [µg/mL] | MIC [6] [µg/mL] | MIC [7] [µg/mL] | MIC (Proteus vulgaris TB-615 [8]) [µg/mL] | MIC [9] [µg/mL] |
| --- | --- | --- | --- | --- | --- | --- | --- | --- | --- |
| NC[C@H]1O[C@H](O[C@H]2[C@H](O)[C@@H](O[C@H]3O[C@H](CO)[C@@H](O)[C@H](N)[C@H]3O)[C@H](N)C[C@@H]2N)[C@H](O)[C@@H](O)[C@@H]1O [KM-A, kanamycin A] | 100 (≈ 206 µM) | > 100 | > 100 | 12.5 (≈ 25.8 µM) | > 100 | – | – | – | – |
| NC[C@H]1O[C@H](O[C@H]2[C@H](O)[C@@H](O[C@H]3O[C@H](CO)[C@@H](O)[C@H](N)[C@H]3O)[C@H](N)C[C@@H]2N)[C@H](N)C[C@@H]1O [TOB, tobramycin] | 50 (≈ 107 µM) | 100 (≈ 214 µM) | > 100 | 25 (≈ 53.5 µM) | 100 (≈ 214 µM) | 25 (≈ 53.5 µM) | 25 (≈ 53.5 µM) | 50 (≈ 107 µM) | 100 (≈ 214 µM) |
| NC[C@H]1O[C@H](O[C@H]2[C@H](O)[C@@H](O[C@H]3O[C@H](CO)[C@@H](O)[C@H](N)[C@H]3O)[C@H](NC(=O)C3(O)CNC3)C[C@@H]2N)[C@H](N)C[C@@H]1O [Comp. (1), 1-N-(3-hydroxyazetidine-3-carbonyl)tobramycin] | 6.25 (≈ 11 µM) | 25 (≈ 44.1 µM) | > 100 | 12.5 (≈ 22.1 µM) | 3.13 (≈ 5.52 µM) | – | – | – | – |
| NC[C@H]1O[C@H](O[C@H]2[C@H](O)[C@@H](O[C@H]3O[C@H](CO)[C@@H](O)[C@H](N)[C@H]3O)[C@H](NC(=O)C3(O)CNC3)C[C@@H]2N)[C@H](O)[C@@H](O)[C@@H]1O [Comp. (2), 1-N-(3-hydroxyazetidine-3-carbonyl)kanamycin A] | 6.25 (≈ 10.7 µM) | 25 (≈ 42.8 µM) | 50 (≈ 85.7 µM) | 6.25 (≈ 10.7 µM) | 6.25 (≈ 10.7 µM) | – | – | – | – |
